Results: ChEMBL document CHEMBL1152978 (J Med Chem, 2009)

How the values were obtained:
Mus musculus [1] = experiment: Toxicity in Swiss mouse assessed as occurrence of mydriasis at 30 mg/kg, ip up to 24 hrs; type: organism-based; design: dose 30 mg/kg, route intraperitoneal; settings: in vivo
Mus musculus [2] = experiment: Toxicity in Swiss mouse assessed as neurobiological state and occurrence of xerostomia at 30 mg/kg, ip up to 24 hrs; type: organism-based; design: dose 30 mg/kg, route intraperitoneal; settings: in vivo
[3] = target: T1, Muscarinic acetylcholine receptor M3 (Homo sapiens, UniProt P20309); experiment: Displacement of [3H]NMS from human muscarinic M3 receptor expressed in CHOK1 cells by microplate scintillation counting; type: cell-based, CHO-K1
T1 sequence (P20309 whole entry): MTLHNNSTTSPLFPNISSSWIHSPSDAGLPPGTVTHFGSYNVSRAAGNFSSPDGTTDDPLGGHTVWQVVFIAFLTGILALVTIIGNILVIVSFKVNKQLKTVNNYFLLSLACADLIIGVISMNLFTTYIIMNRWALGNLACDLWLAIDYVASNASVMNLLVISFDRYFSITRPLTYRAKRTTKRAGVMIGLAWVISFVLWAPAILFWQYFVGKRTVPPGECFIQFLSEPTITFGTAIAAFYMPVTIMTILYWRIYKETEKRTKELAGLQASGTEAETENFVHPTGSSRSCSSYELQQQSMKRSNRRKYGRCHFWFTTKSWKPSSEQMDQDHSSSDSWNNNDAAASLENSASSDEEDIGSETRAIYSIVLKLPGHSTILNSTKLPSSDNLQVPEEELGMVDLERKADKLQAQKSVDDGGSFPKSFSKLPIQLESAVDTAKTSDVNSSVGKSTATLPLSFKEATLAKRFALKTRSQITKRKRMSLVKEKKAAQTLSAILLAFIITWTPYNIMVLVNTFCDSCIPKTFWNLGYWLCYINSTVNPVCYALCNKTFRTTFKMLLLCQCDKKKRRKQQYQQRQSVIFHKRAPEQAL

[4] = target: T2, Muscarinic acetylcholine receptor M2 (Homo sapiens, UniProt P08172); experiment: Displacement of [3H]NMS from human muscarinic M2 receptor expressed in CHOK1 cells by microplate scintillation counting; type: cell-based, CHO-K1
T2 sequence (P08172 whole entry): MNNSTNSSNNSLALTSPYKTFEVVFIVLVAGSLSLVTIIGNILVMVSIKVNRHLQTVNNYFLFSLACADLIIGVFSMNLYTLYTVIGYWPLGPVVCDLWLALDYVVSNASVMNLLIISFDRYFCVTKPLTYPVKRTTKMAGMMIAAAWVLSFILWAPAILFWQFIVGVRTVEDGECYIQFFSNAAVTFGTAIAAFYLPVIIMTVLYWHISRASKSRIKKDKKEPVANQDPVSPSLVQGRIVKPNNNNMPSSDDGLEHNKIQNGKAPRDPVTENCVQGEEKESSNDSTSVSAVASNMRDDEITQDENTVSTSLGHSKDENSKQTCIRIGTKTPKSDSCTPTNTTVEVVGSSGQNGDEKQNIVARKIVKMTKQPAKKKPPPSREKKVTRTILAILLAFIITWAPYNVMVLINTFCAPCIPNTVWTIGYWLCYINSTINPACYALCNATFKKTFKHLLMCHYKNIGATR

Cavia porcellus [5] = experiment: Inhibition of acetylcholine-induced bronchoconstriction in Dunkin-Hartley guinea pig assessed as time taken to recover 50% of maximum inhibitory effect at 3 mg/mL administered as nebulized solution; type: functional
[6] = target: T3, Muscarinic acetylcholine receptor M1 (Homo sapiens, UniProt P11229); experiment: Displacement of [3H]NMS from human muscarinic M1 receptor expressed in CHOK1 cells by microplate scintillation counting; type: cell-based, CHO-K1
T3 sequence (P11229 whole entry): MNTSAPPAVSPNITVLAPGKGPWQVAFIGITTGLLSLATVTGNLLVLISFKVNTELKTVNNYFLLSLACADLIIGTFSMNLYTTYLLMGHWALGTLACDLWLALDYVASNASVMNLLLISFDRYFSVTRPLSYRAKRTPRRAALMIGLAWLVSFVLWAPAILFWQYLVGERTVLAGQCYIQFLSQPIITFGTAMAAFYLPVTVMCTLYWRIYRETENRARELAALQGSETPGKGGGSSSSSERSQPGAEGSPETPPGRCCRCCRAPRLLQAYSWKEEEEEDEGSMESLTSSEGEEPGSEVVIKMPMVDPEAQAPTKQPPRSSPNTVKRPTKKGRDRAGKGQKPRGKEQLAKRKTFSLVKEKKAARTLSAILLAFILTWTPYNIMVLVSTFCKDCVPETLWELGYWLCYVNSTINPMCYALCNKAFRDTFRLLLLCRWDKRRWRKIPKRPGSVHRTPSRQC

Cavia porcellus [7] = experiment: Inhibition of acetylcholine-induced bronchoconstriction in Dunkin-Hartley guinea pig assessed as time taken to recover 50% of maximum inhibitory effect at 1 mg/mL administered as nebulized solution; type: functional
[8] = Chemical stability assessed as half life at pH 7.4 by UV-HPLC analysis; type: physicochemical; settings: buffer
[9] = target: T1, Muscarinic acetylcholine receptor M3
Description: Binding affinity to muscarinic M3 receptor

[10] = Metabolic stability in human plasma assessed as elimination half life at pH 7.4; type: ADME, cell-free; settings: read-out: beta t1/2
[11] = target: T2, Muscarinic acetylcholine receptor M2; experiment: Binding affinity to muscarinic M2 receptor
[12] = target: T3, Muscarinic acetylcholine receptor M1; experiment: Binding affinity to muscarinic M1 receptor
Cavia porcellus [13] = experiment: Inhibition of acetylcholine-induced bronchoconstriction in Dunkin-Hartley guinea pig assessed as time taken to recover 50% of maximum inhibitory effect at 1 mg/mL administered as nebulized solution
Cavia porcellus [14] = experiment: Inhibition of acetylcholine-induced bronchoconstriction in Dunkin-Hartley guinea pig administered as nebulized solution; type: functional, organism-based

| SMILES | Activity (Mus musculus [2]) | IC50 [3] | IC50 [4] | IC50 [6] | Time (Cavia porcellus [7]) | also measured |
| --- | --- | --- | --- | --- | --- | --- |
| CC(C)[N+]1(C)C2CCC1CC(OC(=O)C(CO)c1ccccc1)C2.O.[Br-] (stereo unspecified) |  |  |  |  |  | Activity (Mus musculus [1]): Toxic |
| O=C(O[C@H]1C[N+]2(CCCOc3ccccc3)CCC1CC2)[C@@](O)(c1cccs1)C1CCCC1.[Br-] | Non-toxic | 1.62 nM | 1.01 nM | 0.81 nM |  | Time (Cavia porcellus [5]): >6 h |
| O=C(O[C@H]1C[N+]2(CCCOc3ccccc3)CCC1CC2)C(c1cccs1)c1cccs1.[Br-] | Non-toxic | 0.37 nM | 0.35 nM | 0.34 nM |  |  |
| O=C(O[C@H]1C[N+]2(CCCOc3ccccc3)CCC1CC2)C(O)(c1ccsc1)c1ccsc1.[Br-] | Non-toxic | 0.24 nM | 0.18 nM | 0.23 nM |  |  |
| O=C(O[C@H]1C[N+]2(CCCOc3ccccc3)CCC1CC2)C(O)(c1ccccc1)c1ccccc1.[Br-] | Non-toxic |  |  | 0.31 nM |  | Time (Cavia porcellus [5]): >6 h |
| O=C(O[C@H]1C[N+]2(CCCCc3ccccc3)CCC1CC2)C(O)(c1cccs1)c1cccs1.[Br-] | Non-toxic | 0.45 nM | 0.38 nM | 0.29 nM | 6 h | Time (Cavia porcellus [5]): 6 h |
| CC1(C(=O)O[C@H]2C[N+]3(CCCOc4ccccc4)CCC2CC3)c2ccccc2Oc2ccccc21.[Br-] | Non-toxic |  | 0.27 nM | 0.28 nM |  |  |
| O=C(O[C@H]1C[N+]2(CCCOc3ccccc3)CCC1CC2)[C@@](O)(c1ccccc1)c1cccs1.[Br-] | Non-toxic | 0.25 nM | 0.17 nM | 0.16 nM |  |  |
| O=C(O[C@H]1C[N+]2(CCCOc3ccccc3)CCC1CC2)[C@](O)(c1cccs1)C1CCCC1.[Br-] | Non-toxic | 0.18 nM | 0.14 nM | 0.15 nM | >6 h | half-life [8]: > 1 h; Ki [9]: 0.07 nM; Activity (Mus musculus [1]): Toxic; half-life [10]: > 1 h; Ki [11]: 0.06 nM; Ki [12]: 0.09 nM; Time (Cavia porcellus [5]): >6 h |
| O=C(O[C@H]1C[N+]2(CCc3ccccc3)CCC1CC2)C1c2ccccc2Oc2ccccc21.[Br-] | Non-toxic | 0.31 nM | 1.82 nM | 0.44 nM | >6 h |  |
| CC1(C(=O)O[C@H]2C[N+]3(CCCOc4ccccc4)CCC2CC3)c2ccccc2-c2ccccc21.[Br-] | Non-toxic | 0.96 nM | 2.1 nM | 1.26 nM |  |  |
| CC(C(=O)O[C@H]1C[N+]2(CCCOc3ccccc3)CCC1CC2)(c1cccs1)c1cccs1.[Br-] | Non-toxic | 0.59 nM | 0.73 nM | 0.6 nM |  |  |
| O=C(O[C@H]1C[N+]2(CCCOc3ccccc3)CCC1CC2)C1(O)c2ccccc2-c2ccccc21.[Br-] | Non-toxic | 0.71 nM | 1.08 nM | 0.63 nM |  | Time (Cavia porcellus [5]): >6 h |
| O=C(O[C@H]1C[N+]2(CCc3ccccc3)CCC1CC2)C1(O)c2ccccc2-c2ccccc21.[Br-] | Non-toxic | 1.04 nM | 2.24 nM | 1.12 nM | >6 h |  |
| O=C(O[C@H]1C[N+]2(CCCOc3ccccc3)CCC1CC2)C1(O)c2ccccc2Oc2ccccc21.[Br-] | Non-toxic | 1.04 nM | 0.36 nM | 0.23 nM | >6 h |  |
| O=C(O[C@H]1C[N+]2(CCc3ccccc3)CCC1CC2)C1(O)c2ccccc2Oc2ccccc21.[Br-] | Non-toxic | 0.28 nM | 0.54 nM | 0.29 nM | >6 h |  |
| O=C(O[C@H]1C[N+]2(CCCOc3ccccc3)CCC1CC2)[C@](O)(c1ccccc1)c1cccs1.[Br-] | Non-toxic | 0.48 nM | 0.31 nM | 0.38 nM |  |  |
| O=C(O[C@H]1C[N+]2(CCCOc3ccccc3)CCC1CC2)C(O)(c1cccs1)c1cccs1.[Br-] [ACLIDINIUM BROMIDE] | Non-toxic |  |  | 0.14 nM | >6 h | half-life [8]: 1 h; Activity (Mus musculus [1]): Non-toxic; Time (Cavia porcellus [13]): >6 h; half-life [10]: 0.0367 h; Ki [12]: 0.08 nM; IC50 (Cavia porcellus [14]): 140 µg/mL |
| C[N+]1(C)[C@@H]2C[C@@H](OC(=O)C(O)(c3cccs3)c3cccs3)C[C@H]1[C@@H]1O[C@@H]12.O.[Br-] [TIOTROPIUM BROMIDE] |  |  |  |  | >6 h | Activity (Mus musculus [1]): Toxic; IC50 (Cavia porcellus [14]): 45 µg/mL |
